Experimental data reported in patent US20230364029A1, “POLYMORPHIC FORMS OF (R)-2-HYDROXY-2-METHYL-4-(2,4,5-TRIMETHYL-3,6-DIOXOCYCLOHEXA-1,4-DIENYL)BUTANAMIDE” (PTC THERAPEUTICS, INC., priority 2014, published 2023).

Key:
[1] = Competitive slurries of Patterns A-F; format: physicochemical; details: competitive slurry of Patterns A-F in 0.5% MC/water, ambient
Description: Competitive slurry experiments of Patterns A, B, C, D, E and F were initiated in IPA, IPA/2% water and 0.5% Methyl Cellulose in water at ambient conditions as summarized in Table 16. Approximately 100 mg of the starting material, Pattern A, was added to a glass vial fitted with a magnetic stir bar. Solvent was added to the vial and allowed to slurry with Pattern A for 15 minutes before approximately 10-20 mg of each relative Pattern (B, C, D, E and F) was added to each vial.

[2] = system: Human dermal fibroblasts from Friedreich’s Ataxia patients (GM04078); test: Rescue of BSO-stressed FRDA fibroblasts; format: cell-based; details: Friedrich’s Ataxia, Calcein AM viability
Description: An initial screen was performed to identify compounds effective for the amelioration of redox disorders. Test samples were tested for their ability to rescue FRDA fibroblasts stressed by addition of L-buthionine-(S,R)-sulfoximine (BSO), as described in Jauslin et al., Hum. Mol. Genet. 11(24):3055 (2002), Jauslin et al., FASEB J. 17:1972-4 (2003), and International Patent Application WO 2004/003565.
MEM (a medium enriched in amino acids and vitamins, catalog no. 1-31F24-I) and Medium 199 (M199, catalog no. 1-21F22-I) with Earle’s Balanced Salts, without phenol red, were purchased from Bioconcept. Fetal Calf Serum was obtained from PAA Laboratories. Basic fibroblast growth factor and epidermal growth factor were purchased from PeproTech. Penicillin-streptomycin-glutamine mix, L-buthionine (S,R)-sulfoximine, and insulin from bovine pancreas were purchased from Sigma. Calcein AM was purchased from Anaspec. […]
100 microliters of PBS +Ca +Mg containing 1.2 micromolar Calcein AM were then added to each well. […] After that time fluorescence (excitation/emission wavelengths of 485 nm and 525 nm, respectively) was read on a Gemini fluorescence reader. […]

[3] = system: cells from patients having Leigh Syndrome (Coriell GMOI503A); test: Fibroblast screen similar to Example 12, Leigh Syndrome cells; format: cell-based; details: Homo sapiens
[4] = system: cells from patients having Leber’s Hereditary Optic Neuropathy (LHON) (Coriell GM03858); test: Fibroblast screen similar to Example 12, LHON cells; format: cell-based; details: Homo sapiens
[5] = system: cells from patients having Parkinson’s Disease (Coriell AG20439); test: Fibroblast screen similar to Example 12, Parkinson’s Disease cells; format: cell-based; details: Homo sapiens
[6] = system: cells from patients having Huntington’s Disease (Coriell GM 04281); test: Fibroblast screen similar to Example 12, Huntington’s Disease cells; format: cell-based; details: Homo sapiens
[7] = system: cells from patients having Rett’s Disorder (Coriell GM-17567); test: Fibroblast screen similar to Example 12, Rett’s Disorder cells; format: cell-based; details: Homo sapiens
[8] = system: cells from patients having a CoQ2 mutation (CoQ10 Deficiency); test: Fibroblast screen similar to Example 12, CoQ10 Deficiency cells; format: cell-based; details: Homo sapiens
[9] = system: cells from patients having Amyotrophic Lateral Sclerosis (ALS) (Coriell ND29523); test: Fibroblast screen similar to Example 12, ALS cells; format: cell-based; details: Homo sapiens
[10] = system: auditory HEI-OC 1 cells; test: Protection from cisplatin-induced ototoxicity (caspase3/7 activity); format: cell-based, mice; details: overnight pretreatment, 24 hours of 50 uM cisplatin
Description: The conditionally immortalized auditory HEI-OC 1 cells from long-term cultures of transgenic mice Immortomouse™ cochleas as described in Kalinec, G. et al., Audiol. Nerootol. 2003; 8, 177-189/. were maintained in high glucose Dulbecco’s modified Eagle medium (DMEM) containing 10% FBS under permissive conditions, 33° C., 10%CO2. Cells were pretreated overnight with (R)-2-hydroxy-2-methyl-4-(2,4,5-trimethyl-3,6-dioxocyclohexa-1,4-dienyl)butanamide, and apoptosis was detected by caspase3/7 activity after 24 hours of 50 uM cisplatin incubation. Cells incubated in diluent alone were the controls.

In the case of CC1=C(C)C(=O)C(CC[C@@](C)(O)C(N)=O)=C(C)C1=O [(R)-2-hydroxy-2-methyl-4-(2,4,5-trimethyl-3,6-dioxocyclohexa-1,4-dienyl)butanamide], the “XRPD 24 hrs” value [1] is reported as “A/C”, the EC50 [2] is reported as less than 100 nM and the EC50 [3] is reported as less than 100 nM. The EC50 [4] was less than 100 nM, the EC50 [5] was 100 to 500 nM and the EC50 [6] was less than 100 nM. It also gave an EC50 [7] of less than 100 nM, an EC50 [8] of less than 100 nM and an EC50 [9] of less than 100 nM. The EC25 [10] was “+++ (+++ indicates less than 100 micromolar)”.
